Experimental data from US20260373274A1, “PEPTIDE-LINKED DRUG DELIVERY SYSTEM” (priority 2022, published 2026).
“Also recorded” adds a separate entry of the source. Where a SMILES comes first, the peptide text is derived from it. [ ]: non-standard residue; d: D form. The star is where a group is joined. X1 = COc1cc2cc(c1Cl)N(C)C(=O)C[C@H](OC(=O)[C@H](C)N(C)C(=O)CCS*)[C@]1(C)O[C@H]1[C@H](C)[C@@H]1C[C@@](O)(NC(=O)O1)[C@H](OC)/C=C/C=C(\C)C2; βAla = NCCC(=O)O; Mpa = O=C(O)CCS

Legend:
[1] = system: orthotopic human UMUC-3 tumors; experiment: Therapeutic efficacy for treating BC, orthotopic UMUC-3/GFP-Luc xenograft
Excerpt: These animals were immediately euthanized I week after the completion of the treatment schedule.
(§1) Slides were then counterstained with Hematoxylin.

Renca/GFP-Luc tumors = experiment: Kidney cancer treatment, orthotopic Renca/GFP-Luc syngeneic model; type: in vivo, female BALB/c mice; murine tumor cells
Description: Evaluation of DM1-Bdd for Kidney cancer treatment—Renca/GFP-Luc cells ([…]) in PBS (3 μL) were orthotopically implanted into the kidney capsules of 7- to 9-week-old female BALB/c mice (Jackson Laboratory, Bar Harbor, ME) as previously described. The tumor progression was confirmed by bioluminescence imaging. […] The animals were monitored for tumor growth inhibition and survival as described above. Additional mice were used for histopathological analysis (n=4/group).
as §1

[2] = system: major organs (liver, spleen, heart, lungs, and kidneys); experiment: Necropsy, histopathology of major organs; type: in vivo, female BALB/c mice; conditions: i.v. weekly for 3 weeks
Excerpt: (§2) At the end of a 3-week treatment, mice were euthanized. The organs/tissues were harvested, fixed in 10% neutral buffered formalin for 2 days. Bones were decalcified in a formic acid solution (Surgipath Decalcifier I; Leica Biosystems, Weltzar, Germany). The samples were then embedded in paraffin, sectioned (5 μm), and stained with H&E for examination by an ACVP board certified anatomic pathologist.

[3] = In vitro drug release study, DM1-peptide; type: physicochemical; conditions: GSH (1 mM), PBS
Description: In vitro drug release study—DM1-peptide conjugates (10 μM of drug content) were incubated in the presence of the reducing agent GSH (1 mM) in PBS buffer (800 μL). At different time intervals (0, 2, 4, 6, 8, 12, 24, and 48 h), a small amount of solution (100 μL) was taken out for HPLC analysis using C18 analytical column. The amount of DM1 active metabolites released overtime was measured (absorbance detected at 254 nm) and then quantified. The experiment was performed independently in triplicate. A similar experiment was performed to quantify the release of aldox. Aldox-peptide conjugates (100 μM of drug content) were incubated in PBS buffer (800 μL) with different pH (7.4 and 5.5) in a glass vial coated with silica to avoid non-specific adsorption on the reaction vessel surfaces. The amount of drug released over time was then measured as described above (absorbance detected at 480 nm). For accurate quantification, all the results were normalized compared to a DOX control incubated in similar conditions.

kidneys = experiment: Nephrotoxicity studies, kidney histology and immunohistochemistry (NGAL and KIM-1); type: in vivo, BALB/c mice; conditions: 3 days after i.v. administration; CIS 10 mg/kg, DM1-Bdd 0.75 mg/kg of drug content
Description: as §1
(§3) The level of the acute renal injury biomarkers, neutrophil gelatinase-associated lipocalin (NGAL) and kidney injury molecule-1 (KIM-1) in the urine samples, were measured using ELISA assays according to the manufacturer's instructions (R&D Systems, Minneapolis, MN). […] All the animals (n=3/group) were euthanized at the end of the treatment and the kidneys were collected and fixed in 10% neutral buffered formalin. The tissues were then processed, embedded in paraffin, sectioned, and stained with H&E. Immunohistochemistry (IHC) for kidney injury (NGAL and KIM-I) was also performed.

[4] = Hematology, complete blood count; type: in vivo, female BALB/c mice; conditions: i.v. weekly for 3 weeks; DM1/DM1-Bdd 0.75 mg/kg, CIS 10 mg/kg
Description: Necropsy—Seven- to 9-week-old female BALB/c mice (n=4/group) were treated weekly with PBS, DM1, DM1-peptide (0.75 mg/kg of drug content), or cisplatin (10 mg/kg) via tail-vein injection (150 μL). At the end of a 3-week treatment, mice were euthanized. The organs/tissues were harvested, fixed in 10% neutral buffered formalin for 2 days. Bones were decalcified in a formic acid solution (Surgipath Decalcifier I; Leica Biosystems, Weltzar, Germany). The samples were then embedded in paraffin, sectioned (5 μm), and stained with H&E for examination by an ACVP board certified anatomic pathologist.
(§4) Hematology and biochemistry—Blood samples were collected via cardiac puncture. A complete blood count, including red blood cell, white blood cell, reticulocyte and platelet counts, with an automated differential leukocyte count, was performed using an IDEXX Procyte DX hematology analyzer (iDEXX, Westbrook. ME). Blood smears were prepared, stained with modified Wright's stain, examined in a blinded fashion by a board-certified veterinary clinical pathologist (T.S.), and imaged using a Nikon Eclipse TE2000-U fluorescent microscope equipped with a photometrics CoolSNAP HQ^2 camera (Nikon Corporation, Tokyo, Japan). The blood was also centrifuged (1,500×G) for 15 min to obtain the serum for biochemical analysis using a Beckman Coulter AU680 analyzer (Beckman Coulter, Brea, CA).

Serum biochemistry = type: in vivo, female BALB/c mice; conditions: i.v. weekly for 3 weeks; DM1/DM1-Bdd 0.75 mg/kg, CIS 10 mg/kg
Excerpt: as §2, §4

[5] = system: kidney injury molecule-1 (KIM-1) and neutrophil gelatinase-associated lipocalin (NGAL); experiment: Nephrotoxicity studies, urinary renal injury biomarkers by ELISA; type: in vivo, BALB/c mice; conditions: single i.v. dose, 0.75 mg/kg of drug content
Description: as §3

[6] = i.v., 0.75 mg/kg weekly for 3 weeks
[7] = i.v., 0.75 mg/kg of drug content weekly for 3 weeks
[8] = one week after completing the treatment course

Structure (SMILES): COc1cc2cc(c1Cl)N(C)C(=O)C[C@H](OC(=O)[C@H](C)N(C)C(=O)CCSSCCC(=O)NCCC(=O)N[C@H](CC(=O)O)C(=O)N[C@H](CC(=O)O)C(=O)NCCC(=O)N[C@H](CC(=O)O)C(=O)N[C@H](CC(=O)O)C(=O)NCCC(=O)N[C@H](CC(=O)O)C(=O)N[C@H](CC(=O)O)C(=O)NCCC(=O)N[C@H](CC(=O)O)C(=O)N[C@H](CC(=O)O)C(N)=O)[C@]1(C)O[C@H]1[C@H](C)[C@@H]1C[C@@](O)(NC(=O)O1)[C@H](OC)/C=C/C=C(\C)C2 [DM1-Bdd] ([Mpa](X1)[βAla][dD][dD][βAla][dD][dD][βAla][dD][dD][βAla][dD][dD]-NH2)
- treatment outcome of i.v. compared to i.t. administration ([1]; 0.75 mg/kg of drug content weekly for 3 weeks): better treatment outcome; also recorded: more effective
- anti-tumor activity of i.v. DM1-Bdd versus i.v. DM1 ([1]; bioluminescence imaging during 3 once-per-week treatments): similar
- survival after 100 days [1, 6]: 36%
- tumor growth inhibition compared to i.t. MIT [1, 6]: more effective in inhibiting tumor growth
- animal survival compared to i.t. MIT ([1]; i.v., 0.75 mg/kg weekly for 3 weeks, 0.75 mg/kg): prolonged animal survival; also recorded: improved the overall survival
- animals for which treatment was curative ([1]; i.v., 210 days): 21%
- gross and histologic evidence of tumors in survivor mice ([1]; i.v., 210 days): lacked gross and histologic evidence (using GFP and Ki67 immunostaining) of tumors
- animals which lacked gross and histologic evidence of tumors ([1]; i.v., 210 days after tumor implantation): 3 animals
- tumor size by histology ([1]; i.v., end of treatment): smaller
- GFP-positive cells ([1]; i.v., immunohistochemistry): fewer GFP-positive cells
- proportion of cells expressing Ki67 ([1]; i.v., immunohistochemistry): lower proportion of cells expressing the proliferation marker (Ki67)
- survival benefit compared to the free drug (Renca/GFP-Luc tumors; i.v.): significant survival benefit compared to the free drug
- bioluminescence signals in the majority of the animals (Renca/GFP-Luc tumors; [7]): decreased bioluminescence signals
- survival after 160 days (Renca/GFP-Luc tumors; [7]): 50%
- tumor progression (Renca/GFP-Luc tumors; [7]): inhibit tumor progression
- tumor size (Renca/GFP-Luc tumors; [7]): reduced tumor size
- animals lacking gross or histologic evidence of the tumor (Renca/GFP-Luc tumors; [8]): approximately 50%
- tumor in kidneys by histological examination (Renca/GFP-Luc tumors; [8]): Minimal tumor was present
- overall toxicity [2]: did not induce unwanted toxicity; also recorded: safe toxicity profile
- histopathology of liver, spleen, heart, lungs, or kidneys ([2]; DM1/DM1-Bdd 0.75 mg/kg, CIS 10 mg/kg): no morphological evidence of injury in the liver, spleen, heart, lungs, or kidneys
- drug release in a reducing environment [3]: enabling drug release in a reducing environment
- histologic examination of kidneys (kidneys): did not reveal any abnormalities in the kidneys
- immunoreactivity of kidney sections for KIM-1 and NGAL (kidneys): no elevation of the immunoreactivity
- red blood cell, leukocyte, or platelet counts or morphologic features [4]: did not affect the red blood cell, leukocyte, or platelet counts or morphologic features
- hepatotoxicity: release of ALP, ALT, and AST (Serum biochemistry): not hepatotoxic, with no significant alteration in the release of ALP, ALT, and AST
- urea nitrogen/creatinine ratio (Serum biochemistry): normal
- time for KIM-1 and NGAL to return to basal levels [5]: ≤ 3 days
- levels of KIM-1 and NGAL in the urine, 1 day ([5]; 1 day): slightly increased
